What was measured:
[1] = tested on: patients with treatment-resistant depression (TRD); assay: Adverse events (Example 7); assay type: in vivo, human; conditions: for Dissociation, number of participants / Dissociative disorder, % of participants / Dissociative disorder, number of participants / Dizziness, % of participants / Dizziness, number of participants / Dysgeusia, % of participants / Dysgeusia, number of participants / Feeling abnormal, % of participants / Feeling abnormal, number of participants / Headache, % of participants / Headache, number of participants / Hypersomnia, % of participants / Hypersomnia, number of participants / Hypertension, number of participants / Hypoesthesia oral, % of participants / Hypoesthesia oral, number of participants / Insomnia, number of participants / Nasal discomfort, number of participants / Nausea, % of participants / Nausea, number of participants / Oropharyngeal pain, number of participants / Polyuria, number of participants / Sedation, % of participants / Sedation, number of participants / Throat irritation, % of participants / Throat irritation, number of participants / Total with events, % of participants / Total with events, number of participants / Tunnel vision, number of participants / Vertigo, % of participants / Vertigo, number of participants / Vision blurred, number of participants / Dissociation, % of participants / Hypertension, % of participants / Insomnia, % of participants / Nasal discomfort, % of participants / Oropharyngeal pain, % of participants / Polyuria, % of participants / Tunnel vision, % of participants / Vision blurred, % of participants: double-blind
Procedure: (§1) Adverse events were monitored throughout the study. Other safety assessments (i.e., laboratory tests, vital signs, physical examination) were performed at pre-specified time points. Vital signs, the Clinician Administered Dissociative States Scale (CADSS; Bremner, “Measurement of dissociative states with the clinician-administered dissociative states scale (CADSS)”, J. Traumatic Stress, 1998, 11(1):125-136), and the 4-item positive symptom subscale from the Brief Psychiatric Rating Scale (BPRS; Overall, “The Brief Psychiatric Rating Scale. Psychological Reports”, 1962, 10:799-812) were assessed pre-dose, at 40 minutes, and 2 hours post-dose.
Safety data were analyzed in Period 1, Period 2, double-blind, and open-label data sets, for all subjects receiving at least 1 dose of study medication.

[2] = tested on: patients with treatment-resistant depression (TRD); assay: Vital signs: blood pressure and heart rate (Example 7); assay type: in vivo, human
Procedure: as §1

SMILES: CN[C@]1(c2ccccc2Cl)CCCCC1=O [esketamine, (S)-2-(2-chlorophenyl)-2-(methylamino)cyclohexanone]
- participants with adverse events leading to discontinuation of study drug ([1]; double-blind phase): 5%
- Dissociation, number of participants ([1]; 28 mg): 0
- Dissociative disorder, % of participants ([1]; 28 mg): (11) %
- Dissociative disorder, number of participants ([1]; 28 mg): 2
- Dizziness, % of participants ([1]; 28 mg): (21) %
- Dizziness, number of participants ([1]; 28 mg): 4
- Dysgeusia, % of participants ([1]; 28 mg): (11) %
- Dysgeusia, number of participants ([1]; 28 mg): 2
- Feeling abnormal, % of participants ([1]; 28 mg): (11) %
- Feeling abnormal, number of participants ([1]; 28 mg): 2
- Headache, % of participants ([1]; 28 mg): (32) %
- Headache, number of participants ([1]; 28 mg): 6
- Hypersomnia, % of participants ([1]; 28 mg): (11) %
- Hypersomnia, number of participants ([1]; 28 mg): 2
- Hypertension, number of participants ([1]; 28 mg): 0
- Hypoesthesia oral, % of participants ([1]; 28 mg): (5) %
- Hypoesthesia oral, number of participants ([1]; 28 mg): 1
- Insomnia, number of participants ([1]; 28 mg): 0
- Nasal discomfort, number of participants ([1]; 28 mg): 0
- Nausea, % of participants ([1]; 28 mg): (11) %
- Nausea, number of participants ([1]; 28 mg): 2
- Oropharyngeal pain, number of participants ([1]; 28 mg): 0
- Polyuria, number of participants ([1]; 28 mg): 0
- Sedation, % of participants ([1]; 28 mg): (5) %
- Sedation, number of participants ([1]; 28 mg): 1
- Throat irritation, % of participants ([1]; 28 mg): (5) %
- Throat irritation, number of participants ([1]; 28 mg): 1
- Total with events, % of participants ([1]; 28 mg): (58) %
- Total with events, number of participants ([1]; 28 mg): 11
- Tunnel vision, number of participants ([1]; 28 mg): 0
- Vertigo, % of participants ([1]; 28 mg): (11) %
- Vertigo, number of participants ([1]; 28 mg): 2
- Vision blurred, number of participants ([1]; 28 mg): 0
- Dissociation, % of participants ([1]; 56 mg): (35) %
- Dissociation, number of participants ([1]; 56 mg): 7
- Dissociative disorder, % of participants ([1]; 56 mg): (5) %
- Dissociative disorder, number of participants ([1]; 56 mg): 1
- Dizziness, % of participants ([1]; 56 mg): (40) %
- Dizziness, number of participants ([1]; 56 mg): 8
- Dysgeusia, % of participants ([1]; 56 mg): (15) %
- Dysgeusia, number of participants ([1]; 56 mg): 3
- Feeling abnormal, % of participants ([1]; 56 mg): (5) %
- Feeling abnormal, number of participants ([1]; 56 mg): 1
- Headache, % of participants ([1]; 56 mg): (15) %
- Headache, number of participants ([1]; 56 mg): 3
- Hypersomnia, number of participants ([1]; 56 mg): 0
- Hypertension, % of participants ([1]; 56 mg): (10) %
- Hypertension, number of participants ([1]; 56 mg): 2
- Hypoesthesia oral, % of participants ([1]; 56 mg): (20) %
- Hypoesthesia oral, number of participants ([1]; 56 mg): 4
- Insomnia, % of participants ([1]; 56 mg): (10) %
- Insomnia, number of participants ([1]; 56 mg): 2
- Nasal discomfort, % of participants ([1]; 56 mg): (10) %
- Nasal discomfort, number of participants ([1]; 56 mg): 2
- Nausea, % of participants ([1]; 56 mg): (20) %
- Nausea, number of participants ([1]; 56 mg): 4
- Oropharyngeal pain, % of participants ([1]; 56 mg): (5) %
- Oropharyngeal pain, number of participants ([1]; 56 mg): 1
- Polyuria, % of participants ([1]; 56 mg): (10) %
- Polyuria, number of participants ([1]; 56 mg): 2
- Sedation, % of participants ([1]; 56 mg): (10) %
- Sedation, number of participants ([1]; 56 mg): 2
- Throat irritation, number of participants ([1]; 56 mg): 0
- Total with events, % of participants ([1]; 56 mg): (80) %
- Total with events, number of participants ([1]; 56 mg): 16
- Tunnel vision, number of participants ([1]; 56 mg): 0
- Vertigo, % of participants ([1]; 56 mg): (5) %
- Vertigo, number of participants ([1]; 56 mg): 1
- Vision blurred, number of participants ([1]; 56 mg): 0
- Dissociation, % of participants ([1]; 84 mg): (24) %
- Dissociation, number of participants ([1]; 84 mg): 4
- Dissociative disorder, % of participants ([1]; 84 mg): (24) %
- Dissociative disorder, number of participants ([1]; 84 mg): 4
- Dizziness, % of participants ([1]; 84 mg): (47) %
- Dizziness, number of participants ([1]; 84 mg): 8
- Dysgeusia, % of participants ([1]; 84 mg): (29) %
- Dysgeusia, number of participants ([1]; 84 mg): 5
- Feeling abnormal, % of participants ([1]; 84 mg): (6) %
- Feeling abnormal, number of participants ([1]; 84 mg): 1
- Headache, % of participants ([1]; 84 mg): (18) %
- Headache, number of participants ([1]; 84 mg): 3
- Hypersomnia, number of participants ([1]; 84 mg): 0
- Hypertension, % of participants ([1]; 84 mg): (6) %
- Hypertension, number of participants ([1]; 84 mg): 1
- Hypoesthesia oral, % of participants ([1]; 84 mg): (12) %
- Hypoesthesia oral, number of participants ([1]; 84 mg): 2
- Insomnia, number of participants ([1]; 84 mg): 0
- Nasal discomfort, % of participants ([1]; 84 mg): (6) %
- Nasal discomfort, number of participants ([1]; 84 mg): 1
- Nausea, % of participants ([1]; 84 mg): (24) %
- Nausea, number of participants ([1]; 84 mg): 4
- Oropharyngeal pain, % of participants ([1]; 84 mg): (12) %
- Oropharyngeal pain, number of participants ([1]; 84 mg): 2
- Polyuria, number of participants ([1]; 84 mg): 0
- Sedation, % of participants ([1]; 84 mg): (6) %
- Sedation, number of participants ([1]; 84 mg): 1
- Throat irritation, % of participants ([1]; 84 mg): (12) %
- Throat irritation, number of participants ([1]; 84 mg): 2
- Total with events, % of participants ([1]; 84 mg): (88) %
- Total with events, number of participants ([1]; 84 mg): 15
- Tunnel vision, % of participants ([1]; 84 mg): (12) %
- Tunnel vision, number of participants ([1]; 84 mg): 2
- Vertigo, % of participants ([1]; 84 mg): (6) %
- Vertigo, number of participants ([1]; 84 mg): 1
- Vision blurred, % of participants ([1]; 84 mg): (12) %
- Vision blurred, number of participants ([1]; 84 mg): 2
- Dissociation, % of participants ([1]; esketamine Total): (20) %
- Dissociation, number of participants ([1]; esketamine Total): 11
- Dissociative disorder, % of participants ([1]; esketamine Total): (13) %
- Dissociative disorder, number of participants ([1]; esketamine Total): 7
- Dizziness, % of participants ([1]; esketamine Total): (36) %
- Dizziness, number of participants ([1]; esketamine Total): 20
- Dysgeusia, % of participants ([1]; esketamine Total): (18) %
- Dysgeusia, number of participants ([1]; esketamine Total): 10
- Feeling abnormal, % of participants ([1]; esketamine Total): (7) %
- Feeling abnormal, number of participants ([1]; esketamine Total): 4
- Headache, % of participants ([1]; esketamine Total): (21) %
- Headache, number of participants ([1]; esketamine Total): 12
- Hypersomnia, % of participants ([1]; esketamine Total): (4) %
- Hypersomnia, number of participants ([1]; esketamine Total): 2
- Hypertension, % of participants ([1]; esketamine Total): (5) %
- Hypertension, number of participants ([1]; esketamine Total): 3
- Hypoesthesia oral, % of participants ([1]; esketamine Total): (13) %
- Hypoesthesia oral, number of participants ([1]; esketamine Total): 7
- Insomnia, % of participants ([1]; esketamine Total): (4) %
- Insomnia, number of participants ([1]; esketamine Total): 2
- Nasal discomfort, % of participants ([1]; esketamine Total): (5) %
- Nasal discomfort, number of participants ([1]; esketamine Total): 3
- Nausea, % of participants ([1]; esketamine Total): (18) %
- Nausea, number of participants ([1]; esketamine Total): 10
- Oropharyngeal pain, % of participants ([1]; esketamine Total): (5) %
- Oropharyngeal pain, number of participants ([1]; esketamine Total): 3
- Polyuria, % of participants ([1]; esketamine Total): (4) %
- Polyuria, number of participants ([1]; esketamine Total): 2
- Sedation, % of participants ([1]; esketamine Total): (7) %
- Sedation, number of participants ([1]; esketamine Total): 4
- Throat irritation, % of participants ([1]; esketamine Total): (5) %
- Throat irritation, number of participants ([1]; esketamine Total): 3
- Total with events, % of participants ([1]; esketamine Total): (75) %
- Total with events, number of participants ([1]; esketamine Total): 42
- Tunnel vision, % of participants ([1]; esketamine Total): (4) %
- Tunnel vision, number of participants ([1]; esketamine Total): 2
- Vertigo, % of participants ([1]; esketamine Total): (7) %
- Vertigo, number of participants ([1]; esketamine Total): 4
- Vision blurred, % of participants ([1]; esketamine Total): (4) %
- Vision blurred, number of participants ([1]; esketamine Total): 2
- deaths ([1]; in vivo): No death
- adverse event incidence: dizziness ([1]; open-label phase): 38.6%
- adverse event incidence: dysgeusia ([1]; open-label phase): 22.8%
- adverse event incidence: headache ([1]; open-label phase): 14.0%
- adverse event incidence: nausea ([1]; open-label phase): 15.8%
- adverse event incidence: sedation ([1]; open-label phase): 10.5%
- participants reporting transient dissociative symptoms ([1]; open-label phase): 24.6%
- participants with adverse events leading to discontinuation of study drug ([1]; open-label phase): 2%
- maximum diastolic blood pressure value ([2]; 10 or 40 minutes post-dose): 115 mmHg
- maximum systolic blood pressure value ([2]; 10 or 40 minutes post-dose): 199 mmHg
- maximum mean change in diastolic blood pressure ([2]; dosing days): 10.3 mmHg
- maximum mean change in heart rate ([2]; dosing days): 9.4 bpm
- maximum mean change in systolic blood pressure ([2]; dosing days): 19.0 mmHg
- elevated blood pressure returned to the normal range by ([2]; in vivo): ≤ 2 hours post-dose

Source: patent US11883526B2 (priority 2019, dated 2024)
